Assay results as given in publication PMC4263429 (Biochemistry, 2014).

Legend:
[1] = tested on: type 2 dehydratase from E. coli; conditions: cited from earlier work
[2] = tested on: type 1 dehydratase from P. asaccharolyticus; conditions: cited from earlier work
N[C@@H](CO)C(=O)O = test: purified protein, by the assay type

Row | Compound | type of inhibition [1] | type of inhibition [2] | kcat/Km (N[C@@H](CO)C(=O)O) [M⁻¹ s⁻¹]
1 | N[C@H](CO)C(=O)O [D-serine] | competitive inhibitors | – | –
2 | N[C@@H](CS)C(=O)O [L-cysteine] | competitive inhibitors | competitive inhibitor | –
3 | (Legionella pneumophila str. Lens) | – | – | 165000 ± 8000
